20 molecules from US11053235B2, “Substituted 1,4-dihydropyrimidines for the treatment of HBV infection or HBV-induced diseases” (Janssen Sciences Ireland Unlimited Company, priority 2018, dated 2021) can be followed below.

Where two headings read alike, the source gives them in different places.

One data set has as its system HBV. In words: Anti-viral assay in HepG2.2.15 cells: HBV inhibitory activity (HBV DNA in culture medium by q-PCR). As to conditions: HepG2.2.15 cells, 6 days treatment, HBV DNA in culture medium by q-PCR, highest concentration 10 uM, read-out: EC50. Format: cell-based. Put shortly: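 HBV DNA released into the medium was measured by q-PCR after 6-day compound exposure of HepG2.2.15 cells (40,000/well, 2% FBS, one mid-course medium change). Eight 3-fold dilutions, highest 10 uM; EC50 derived by curve fitting.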

Data set [1] is described as follows: Cytotoxicity determination in HepG2.2.15 cells (CCK-8). Format: cell-based. As to conditions: human, 6 days treatment, CCK-8, highest concentration 100 uM. An outline of the steps: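 CC50 derived from CCK-8 absorbance (450 nm, 630 nm reference) after 2.5 h incubation at 37 °C. Before that, HepG2.2.15 cells (5,000/well, 2% FBS) received an 8-point, 3-fold compound series topping at 100 uM for 6 days, with one mid-treatment medium change.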

[2] abbreviates: Hepatitis B virus, HepG2.2.15, 144 h.

`CCOC(=O)C1=C(C2CCN(c3ncc(CC(=O)O)cn3)CC2)NC(c2nccs2)=NC1c1ccc(F)c(F)c1Cl` (single isomer, unassigned) [II-69-B, 2-(2-(4-(6-(2-Chloro-3,4-difluorophenyl)-5-(ethoxycarbonyl)-2-(thiazol-2-yl)-3,6-dihydropyrimidin-4-yl)piperidin-1-yl)pyrimidin-5-yl)acetic Acid]: in the data set with HBV (setting [2]), the EC50 (usually the concentration at which the effect is half-maximal) was found to be 3.1 nM. Moreover, the 50% cytotoxic concentration (CC50) (commonly the concentration at which the toxic effect on the cells reaches its halfway point) at 6 days in data set [1] was found to be 4080 nM.
For `CCOC(=O)C1=C(C2CCN(c3ncc(C)c(C(=O)O)n3)CC2)NC(c2nccs2)=NC1c1ccc(F)cc1C` (single isomer, unassigned) [II-4-B, 2-(4-(5-(Ethoxycarbonyl)-6-(4-fluoro-2-methylphenyl)-2-(thiazol-2-yl)-3,6-dihydropyrimidin-4-yl)piperidin-1-yl)-5-methylpyrimidine-4-carboxylic Acid], in the data set with HBV (setting [2]), the 50% effective concentration (EC50) amounted to 19 nM. In data set [1], the midpoint of cytotoxicity, the CC50 at 6 days, lay at 16300 nM.
Regarding `CCOC(=O)C1=C(C2CCN(c3nc(C)c(C)c(C(=O)O)n3)CC2)NC(c2nccs2)=NC1c1ccc(F)c(F)c1Cl` (single isomer, unassigned) [II-56-B, 2-(4-(6-(2-Chloro-3,4-difluorophenyl)-5-(ethoxycarbonyl)-2-(thiazol-2-yl)-3,6-dihydropyrimidin-4-yl)piperidin-1-yl)-5,6-dimethylpyrimidine-4-carboxylic Acid], the EC50 in the data set with HBV (setting [2]) was 22 nM. The molecule further showed a CC50 at 6 days in data set [1] of 5540 nM.
For `CCOC(=O)C1=C(C2CCN(c3ncc(C(C)(C)C(=O)O)cn3)CC2)NC(c2nccs2)=NC1c1ccc(F)c(F)c1Cl` (single isomer, unassigned) [II-67-B, 2-(2-(4-(6-(2-Chloro-3,4-difluorophenyl)-5-(ethoxycarbonyl)-2-(thiazol-2-yl)-3,6-dihydropyrimidin-4-yl)piperidin-1-yl)pyrimidin-5-yl)-2-methylpropanoic Acid] the same measures were 12 nM and 2020 nM.
Regarding `CCOC(=O)C1=C(C2CC=C(c3nc(C(=O)O)co3)CC2)NC(c2nccs2)=NC1c1ccc(F)c(F)c1Cl` (single isomer, unassigned) [Compound I-13-C, 2-(4-(6-(2-chloro-3,4-difluorophenyl)-5-(ethoxycarbonyl)-2-(thiazol-2-yl)-3,6-dihydropyrimidin-4-yl)cyclohex-1-en-1-yl)oxazole-4-carboxylic Acid], in the data set on HBV, the EC50 was 6.5 nM. This molecule also showed a CC50 at 6 days in data set [1] of 5610 nM.
On to `COC(=O)C1=C([C@H]2CC[C@H](c3nc(CC(=O)O)c(C)o3)CC2)NC(c2nccs2)=NC1c1ccc(F)c(F)c1Cl` (single isomer, unassigned) [Compound I-22-B, (trans)-2-(2-(4-(6-(2-Chloro-3,4-difluorophenyl)-5-(methoxycarbonyl)-2-(thiazol-2-yl)-3,6-dihydropyrimidin-4-yl)cyclohexyl)-5-methyloxazol-4-yl)acetic Acid], for which the concentration for a half-maximal effect (EC50) in the data set with HBV (setting [2]) is 15 nM. Also, the CC50 at 6 days in data set [1] came out at 7680 nM.
Consider `COC(=O)C1=C(C2CCN(c3ncc(C(=O)O)s3)CC2)NC(c2nccs2)=NC1c1ccc(F)c(F)c1Br` (single isomer, unassigned) [II-82-B, 2-(4-(6-(2-Bromo-3,4-difluorophenyl)-5-(methoxycarbonyl)-2-(thiazol-2-yl)-3,6-dihydropyrimidin-4-yl)piperidin-1-yl)thiazole-5-carboxylic Acid], for which, in the data set with HBV (setting [2]), the half-maximal effective concentration (EC50) was found to be 9.1 nM. Besides, the CC50 at 6 days in data set [1] amounted to 9480 nM.
With `CCOC(=O)C1=C([C@H]2CC[C@H](c3nc(CCC(=O)O)co3)CC2)NC(c2nccs2)=NC1c1ccc(F)c(F)c1Cl` (relative stereo) [Compound I-24, (trans)-3-(2-(4-(6-(2-Chloro-3,4-difluorophenyl)-5-(ethoxycarbonyl)-2-(thiazol-2-yl)-3,6-dihydropyrimidin-4-yl)cyclohexyl)oxazol-4-yl)propanoic acid], the 50% effective concentration (EC50) in the data set on HBV (setting [2]) came to 12 nM. The molecule also came in with a half-maximal cytotoxic concentration (CC50) at 6 days in data set [1] of 7550 nM.
For `COC(=O)C1=C(C2CCN(c3ncc(N)c(C(=O)O)n3)CC2)NC(c2nccs2)=NC1c1ccc(F)c(F)c1Cl` (single isomer, unassigned) [II-92-B, 5-amino-2-(4-(6-(2-chloro-3,4-difluorophenyl)-5-(methoxycarbonyl)-2-(thiazol-2-yl)-3,6-dihydropyrimidin-4-yl)piperidin-1-yl)pyrimidine-4-carboxylic Acid] the same measures were 7 nM and 18300 nM.
On the same counts, the results for `COC(=O)C1=C(C2CCN(c3ncc(C(=O)O)o3)CC2)NC(c2nccs2)=NC1c1ccc(F)c(F)c1Cl` (single isomer, unassigned) [II-25-B, 2-(4-(6-(2-Chloro-3,4-difluorophenyl)-5-(methoxycarbonyl)-2-(thiazol-2-yl)-3,6-dihydropyrimidin-4-yl)piperidin-1-yl)oxazole-5-carboxylic Acid] are 54 nM and 18100 nM.
For `CCOC(=O)C1=C(C2CCN(c3nc(C(=O)O)c(C)o3)CC2)NC(c2nccs2)=NC1c1ccc(F)c(F)c1Cl` (single isomer, unassigned) [II-68-B, 2-(4-(6-(2-Chloro-3,4-difluorophenyl)-5-(ethoxycarbonyl)-2-(thiazol-2-yl)-3,6-dihydropyrimidin-4-yl)piperidin-1-yl)5-methyloxazole-4-carboxylic Acid] the same measures were 16 nM and 8320 nM.
As for `CCOC(=O)C1=C(C2CCN(c3nc(C)cc(C(=O)O)n3)CC2)NC(c2nccs2)=NC1c1ccc(F)c(F)c1Cl` (single isomer, unassigned) [II-58-B, 2-(4-(6-(2-Chloro-3,4-difluorophenyl)-5-(ethoxycarbonyl)-2-(thiazol-2-yl)-3,6-dihydropyrimidin-4-yl)piperidin-1-yl)-6-methylpyrimidine-4-carboxylic Acid], the EC50 in the data set on HBV (setting [2]) came out at 37 nM. For the same molecule, in data set [1], the CC50 at 6 days worked out at 4800 nM.
On the same counts, the results for `CCOC(=O)C1=C([C@H]2CC[C@H](c3nc(C(=O)O)no3)CC2)NC(c2nccs2)=NC1c1ccc(F)c(F)c1Cl` (stereo partly drawn) [Compound I-45, (trans)-5-(-4-(6-(2-Chloro-3,4-difluorophenyl)-5-(ethoxycarbonyl)-2-(thiazol-2-yl)-3,6-dihydropyrimidin-4-yl)cyclohexyl)-1,2,4-oxadiazole-3-carboxylic Acid] are 71 nM and 16800 nM.
With `CCOC(=O)C1=C(C2CCN(c3ncc(C)c(C(=O)O)n3)CC2)NC(c2nccs2)=NC1c1cccc(F)c1C` (single isomer, unassigned) [II-2-B, 2-(4-(5-(Ethoxycarbonyl)-6-(3-fluoro-2-methylphenyl)-2-(thiazol-2-yl)-3,6-dihydropyrimidin-4-yl)piperidin-1-yl)-5-methylpyrimidine-4-carboxylic Acid], the EC50 with HBV (setting [2]) worked out at 8.4 nM. Further, the half-maximal cytotoxic concentration (CC50) at 6 days in data set [1] was 12400 nM.
For the molecule `COC(=O)C1=C(C2CCN(c3ncc(C(=O)O)s3)CC2)NC(c2nccs2)=NC1c1ccc(F)cc1Br` (single isomer, unassigned) [II-84-B, 2-(4-(6-(2-Bromo-4-fluorophenyl)-5-(methoxycarbonyl)-2-(thiazol-2-yl)-3,6-dihydropyrimidin-4-yl)piperidin-1-yl)thiazole-5-carboxylic Acid], the EC50 in the data set on HBV (setting [2]) came to 6.4 nM. Besides, the 50% cytotoxic concentration (CC50) at 6 days in data set [1] was determined as 14900 nM.
As to `CCOC(=O)C1=C(C2CCN(c3ncc(CC)c(C(=O)O)n3)CC2)NC(c2nccs2)=NC1c1ccc(F)c(F)c1Cl` (single isomer, unassigned) [II-60-B, 2-(4-(6-(2-Chloro-3,4-difluorophenyl)-5-(ethoxycarbonyl)-2-(thiazol-2-yl)-3,6-dihydropyrimidin-4-yl)piperidin-1-yl)-5-ethylpyrimidine-4-carboxylic Acid], the EC50 with HBV (setting [2]) was found to be 5.9 nM. Moreover, the half-maximal cytotoxic concentration (CC50) at 6 days in data set [1] was determined as 8920 nM.
Consider `COC(=O)C1=C(C2CCN(c3ncc([C@]4(O)C[C@@H](C(=O)O)C4)cn3)CC2)NC(c2nccs2)=NC1c1ccc(F)c(F)c1Cl` (single isomer, unassigned) [II-24-B, (cis)-3-(2-(4-(6-(2-chloro-3,4-difluorophenyl)-5-(methoxycarbonyl)-2-(thiazol-2-yl)-3,6-dihydropyrimidin-4-yl)piperidin-1-yl)pyrimidin-5-yl)-3-hydroxycyclobutanecarboxylic Acid], for which the EC50 with HBV (setting [2]) is less than 4.6 nM. Also, the cytotoxic concentration (CC50) at 6 days in data set [1] worked out at 11000 nM.
`CCOC(=O)C1=C(C2CCN(c3ncc(Cl)c(C(=O)O)n3)CC2)NC(c2nccs2)=NC1c1ccc(F)c(F)c1Cl` (single isomer, unassigned) [II-61-B, 5-Chloro-2-(4-(6-(2-chloro-3,4-difluorophenyl)-5-(ethoxycarbonyl)-2-(thiazol-2-yl)-3,6-dihydropyrimidin-4-yl)piperidin-1-yl)pyrimidine-4-carboxylic Acid]: the 50% effective concentration (EC50) in the data set with HBV (setting [2]) stood at 9.1 nM. Besides, the CC50 at 6 days in data set [1] stood at 6680 nM.
Turning to `COC(=O)C1=C(C2CCN(c3ncc(C)c(C(=O)O)n3)CC2)NC(c2nccs2)=NC1c1ccc(F)cc1Br` (single isomer, unassigned) [II-99-B, 2-(4-(6-(2-Bromo-4-fluorophenyl)-5-(methoxycarbonyl)-2-(thiazol-2-yl)-3,6-dihydropyrimidin-4-yl)piperidin-1-yl)-5-methylpyrimidine-4-carboxylic Acid], the EC50 in the data set on HBV (setting [2]) was 7.3 nM. This molecule had a 50% cytotoxic concentration (CC50) at 6 days in data set [1] of 20700 nM.
For the molecule `CCOC(=O)C1=C(C2CCC(c3cnn(C4CC(C(=O)O)C4)c3)CC2)NC(c2nccs2)=NC1c1ccc(F)c(F)c1Cl` (stereo not shown) [Compound I-34, 3-(4-(4-(6-(2-Chloro-3,4-difluorophenyl)-5-(ethoxycarbonyl)-2-(thiazol-2-yl)-3,6-dihydropyrimidin-4-yl)cyclohexyl)-1H-pyrazol-1-yl)cyclobutanecarboxylic acid], the EC50 with HBV (setting [2]) amounted to 55 nM. The molecule further registered a half-maximal cytotoxic concentration (CC50) at 6 days in data set [1] of 2790 nM.
